Our source for the EC50 and inhibition values is patent US7084155B2, “Chemokine receptor binding heterocyclic compounds” (AnorMED, priority 2000, dated 2006).

What all share (type): cell-based
One experiment concerns HIV-1 BaL. Briefly: Inhibition of HIV-1 BaL (CCR5 using) replication in PHA-stimulated PBMC's, viral p24 antigen expression. The settings on record: Human immunodeficiency virus 1, BAL.
The subject of the next experiment is HIV-1 NL4.3 or IIIB. In words: Inhibition of HIV-1 (NL4.3 or IIIB, CXCR4 using) replication in MT-4 cells, MTT viability. The conditions noted are these: Human immunodeficiency virus 1, IIIB, MT4, concentration protecting 50% of virus-infected cells against viral cytopathicity. How it is done:
Assay for Inhibition of HIV-1 (NL4.3) Replication in MT-4 Cells Inhibition of HIV-1 NL4.3 (or IIIB, CXCR4 using) replication assays were performed as previously described (Bridger et al. J. Med. Chem. 1999, 42, 3971-3981; De […] et al. Proc. Natl. Acad. Sci, 1992, 89, 5286-5290; De […] et al. Antimicrob. Agents Chemother. 1994, 38, 668-674; Bridger et al. J. Med. Chem. 1995, 38, 366-378; Schols et al. J. Exp. Med., 1997, 186, 1383-1388). Anti-HIV activity and cytotoxicity measurements were carried out in parallel. They were based on the viability of MT-4 cells that had been infected with HIV in the presence of various concentrations of the test compounds. After the MT-4 cells were allowed to proliferate for 5 days, the number of viable cells was quantified by a tetrazolium-based colorimetric 3-(4,5-dimethylthiazol-2-yl)-2,5-diphenyltetrazolium bromide (MTT) procedure in 96-well microtrays. In all of these assays, viral input (viral multiplicity of infection, MOI) was 0.01, or 100 times the 50% cell culture infective dose (CCID50). The EC50 was defined as the concentration required to protect 50% of the virus-infected cells against viral cytopathicity.

The test system of experiment [1] is SDF-1 induced Ca flux in SUP-T1 cells. In words: Inhibition of chemokine (SDF-1) induced Ca flux measured on a FLIPR. The conditions noted are these: Homo sapiens. How it is done:
Inhibition of Chemokine Induced Ca Flux Measured on a FLIPR (Molecular Devices) Loading dye: Fluo-3, AM (Molecular Probes F-1241) is dissolved in anhydrous DMSO and stored frozen in aliquots. To increase the solubility of the dye in the loading medium, 10% (w/v) pluronic acid (Molecular Probes F-127) is added to the Fluo-3 stock solution immediately before use. HBSS+20 mM Hepes buffer+0.2% BSA, pH 7.4. HBSS 10× [(w/o phenol red and sodium bicarbonate (Gibco 14 065–049)]; Hepes buffer 1M (Gibco 15 630–056), BSA (Sigma A3675). The flux buffer is vacuum-filtered and stored refrigerated for a maximum of 5 days. Before use in the experiment, the buffer is warmed at 37° C. in a waterbath. The test compounds were diluted in flux buffer to the desired concentration and added to 4 wells of a black microplate (4 parallel measurements per compound). The following control wells were used: 100% response control (no inhibition), flux buffer was added; 100% inhibition control: chemokine was added at 5-times the concentration required to induce a Ca flux. The chemokines are diluted in flux buffer to concentrations that are 4-fold higher than the desired concentrations required for stimulation of the cells (i.e. 2.5 nM for SDF-1[…] and 0.6 nM for RANTES). The chemokines were added to untreated 96-well Sero well compound plates (International Medical, Sterilin code 611F96). In the negative control well's (baseline monitoring), flux buffer is added instead of chemokine. As a positive control to check for dye loading efficiency, 20 μM digitonin (final concentration) was also included. The agonist plate was incubated in the FLIPR (37° C.) for 15–30 min. Cell Loading Protocol for Measuring Inhibition of SDF-1[…] Induced Ca Flux in SUP-T1 Cells. SUP-T1 cells were centrifuged at room temperature (RT) and re-suspended in loading medium (RPMI-1640 containing 2% FBS and 4 μM Fluo-3, AM). The cells were incubate at room temperature for 45 min. then washed twice in flux buffer then incubated in flux buffer at room temperature for 10 min. The cells were centrifuged and re-suspended in flux buffer at a density of 3×10^6 cells per mL. A 100 uL aliquot of the cell suspension (3×10^5 cells) was added to each well of a black microplate (Costar 3603), which already contains 50 uL of a solution of the test compound (at concentrations that are 3-fold higher than the desired final compound concentrations). The microplate is then gently centrifuged at room temperature. Homogeneous spreading of the cells on the bottom of the microplate wells was then confirmed with a microscope and the microplate was incubated in the FLIPR (37° C.) for 10 min. prior to testing. Fluorescence Measurements as a Function of Time on the FLIPR The FLIPR settings (camera exposure time and laser power) are adjusted to obtain initial fluorescence values between 8,000 and 10,000 units. After monitoring a 20 second-baseline, the agonist (chemokine) (50 uL) is added by automatic pipettor with black pipette tips. Fluorescence is measured simultaneously in all wells of the microplate every 2 seconds (first 2 min) and thereafter every 6 seconds (additional 2 min). The average ca-flux measured in each set of 4 identical wells (one test compound) was calculated by the FLIPR software.

Usually EC50 stands for the concentration giving half of the maximal effect. A high value points to lower potency in that assay. The inhibition is the share of the control response that was lost under treatment. A lower inhibition goes with a response near the control. Turning to `c1ccc(N[C@H]2CCCC[C@H]2NCc2ccc(CNCc3ccccn3)cc2)cc1` (relative stereo) [Example 132, N-(2-pyridinylmethyl)-N′-[cis-2-(N-phenylamino)cyclohexyl]-1,4-benzenedimethanamine], the EC50 in the experiment with HIV-1 BaL and in the experiment on HIV-1 NL4.3 or IIIB was < 20 µg/mL in each case. Besides, the inhibition at 20 µg/mL in experiment [1] is > 20%.
Turning to `c1ccc(CNCc2ccc(CN[C@H]3CCCC[C@@H]3NCc3ccccn3)cc2)nc1` (relative stereo) [Example 133, N-(2-pyridinylmethyl)-N′-[trans-2-[(pyridin-2-ylmethyl)amino]cyclohexyl]-1,4-benzenedimethanamine], the EC50 with HIV-1 BaL and in the experiment on HIV-1 NL4.3 or IIIB was < 20 µg/mL throughout. In experiment [1], the inhibition at 20 µg/mL was > 20%.
Take `FC(F)(F)c1ccc2nc(CN(Cc3ccc(CNCc4ccccn4)cc3)C3CCCc4cccnc43)[nH]c2c1` (centres unmarked) [Example 1, N-(2-pyridinylmethyl)-N′-(5-trifluoromethyl-1-H-benzimidazol-2-ylmethyl)-N′-(5,6,7,8-tetrahydro-8-quinolinyl)-1,4-benzenedimethanamine]: the EC50 in the experiment on HIV-1 BaL and with HIV-1 NL4.3 or IIIB was < 20 µg/mL throughout. The inhibition at 20 µg/mL in experiment [1] was > 20%.
Turning to `Cc1cc2nc(CN(Cc3ccc(CNCc4ccccn4)cc3)C3CCCc4cccnc43)[nH]c2cc1C` (centres unmarked) [Example 2, N-(2-pyridinylmethyl)-N′-(5,6-dimethyl-1-H-benzimidazol-2-ylmethyl)-N′-(5,6,7,8-tetrahydro-8-quinolinyl)-1,4-benzenedimethanamine], the EC50 in the experiment on HIV-1 BaL and in the experiment with HIV-1 NL4.3 or IIIB was < 20 µg/mL each time. Also, in experiment [1], the inhibition at 20 µg/mL was > 20%.
On to `COc1cccc2[nH]c(CN(Cc3ccc(CNCc4ccccn4)cc3)C3CCCc4cccnc43)nc12` (centres unmarked) [Example 13, N-(2-pyridinylmethyl)-N′-[4-methoxy-1H-benzimidazol-2-ylmethyl]-N′-(5,6,7,8-tetrahydro-8-quinolinyl)-1,4-benzenedimethanamine], for which the EC50 in the experiment with HIV-1 BaL and with HIV-1 NL4.3 or IIIB was < 20 µg/mL throughout. Also, the inhibition at 20 µg/mL in experiment [1] is > 20%.
As for `c1ccc(-c2cccc3nc(CN(Cc4ccc(CNCc5ccccn5)cc4)C4CCCc5cccnc54)[nH]c23)cc1` (centres unmarked) [Example 14, N-(2-pyridinylmethyl)-N′-[4-phenyl-1H-benzimidazol-2-ylmethyl]-N′-(5,6,7,8-tetrahydro-8-quinolinyl)-1,4-benzenedimethanamine], the concentration giving a half-maximal response (EC50) with HIV-1 BaL and with HIV-1 NL4.3 or IIIB was < 20 µg/mL throughout. In experiment [1], the inhibition at 20 µg/mL is > 20%.
For `c1ccc(-c2cnc(CN(Cc3ccc(CNCc4ccccn4)cc3)C3CCCc4cccnc43)[nH]2)cc1` (centres unmarked) [Example 25, N-(2-pyridinylmethyl)-N′-(4-Phenyl-1H-imidazol-2-ylmethyl)-N′-(5,6,7,8-tetrahydro-8-quinolinyl)-1,4-benzenedimethanamine], the EC50 in the experiment with HIV-1 BaL and in the experiment on HIV-1 NL4.3 or IIIB was < 20 µg/mL each time. In addition, the inhibition at 20 µg/mL in experiment [1] was > 20%.
`O=[N+]([O-])c1ccc(-c2cnc(CN(Cc3ccc(CNCc4ccccn4)cc3)C3CCCc4cccnc43)[nH]2)cc1` (centres unmarked) [Example 27, N-(2-pyridinylmethyl)-N′-[4-(4-nitrophenyl)-1H-imidazol-2-ylmethyl]-N′-(5,6,7,8-tetrahydro-8-quinolinyl)-1,4-benzenedimethanamine]: the EC50 in the experiment on HIV-1 BaL and with HIV-1 NL4.3 or IIIB was < 20 µg/mL throughout. In experiment [1], the inhibition at 20 µg/mL was > 20%.
Turning to `Cc1nc(CN(Cc2ccc(CNCc3ccccn3)cc2)C2CCCc3cccnc32)[nH]c1-c1ccccc1` (centres unmarked) [Example 28, N-(2-Pyridinylmethyl)-N′-(4-methyl-5-phenyl-1H-imidazol-2-ylmethyl)-N′-(5,6,7,8-tetrahydro-8-quinolinyl)-1,4-benzenedimethanamine], the EC50 with HIV-1 BaL and in the experiment with HIV-1 NL4.3 or IIIB was < 20 µg/mL in each case. Also, in experiment [1], the inhibition at 20 µg/mL was > 20%.
On to `CC(C)(C)c1cnc(CN(Cc2ccc(CNCc3ccccn3)cc2)C2CCCc3cccnc32)[nH]1` (centres unmarked) [Example 29, N-(2-Pyridinylmethyl)-N′-(5-tert-butyl-1H-imidazol-2-ylmethyl)-N′-(5,6,7,8-tetrahydro-8-quinolinyl)-1,4-benzenedimethanamine], for which the concentration for a half-maximal effect (EC50) in the experiment with HIV-1 BaL and with HIV-1 NL4.3 or IIIB was < 20 µg/mL throughout. The inhibition at 20 µg/mL in experiment [1] was > 20%.
`COc1cccc(-c2cnc(CN(Cc3ccc(CNCc4ccccn4)cc3)C3CCCc4cccnc43)[nH]2)c1` (centres unmarked) [Example 30, N-(2-Pyridinylmethyl)-N′-[5-(3-methoxyphenyl)-1H-imidazol-2-ylmethyl]-N′-(5,6,7,8-tetrahydro-8-quinolinyl)-1,4-benzenedimethanamine]: the EC50 with HIV-1 BaL and in the experiment on HIV-1 NL4.3 or IIIB was < 20 µg/mL in each case. The inhibition at 20 µg/mL in experiment [1] was > 20%.
Take `COc1c(Br)cccc1-c1cnc(CN(Cc2ccc(CNCc3ccccn3)cc2)C2CCCc3cccnc32)[nH]1` (centres unmarked) [Example 33, N-(2-Pyridinylmethyl)-N′-[5-(3-Bromo-2-methoxy-phenyl)-1H-imidazol-2-ylmethyl]-N′-(5,6,7,8-tetrahydro-8-quinolinyl)-1,4-benzenedimethanamine]: the EC50 with HIV-1 BaL and in the experiment with HIV-1 NL4.3 or IIIB was < 20 µg/mL in each case.
As for `FC(F)(F)c1c[nH]c(CN(Cc2ccc(CNCc3ccccn3)cc2)C2CCCc3cccnc32)n1` (centres unmarked) [Example 35, N-(2-pyridinylmethyl)-N′-(4-trifluormethyl-1H-imidazol-2-ylmethyl)-N′-(5,6,7,8-tetrahydro-8-quinolinyl)-1,4-benzenedimethanamine], the EC50 with HIV-1 BaL and in the experiment with HIV-1 NL4.3 or IIIB was < 20 µg/mL each time. For the same molecule, the inhibition at 20 µg/mL in experiment [1] is > 20%.
On to `CCCCc1ccc(CNCc2ccc(CN(Cc3nc4ccccc4[nH]3)C3CCCc4cccnc43)cc2)nc1` (centres unmarked) [Example 54, N-(5-butyl-2-pyridinylmethyl)-N′-(1H-benzimidazol-2-ylmethyl)-N′-(5,6,7,8-tetrahydro-8-quinolinyl)-1,4-benzenedimethanamine], for which the concentration giving a half-maximal response (EC50) in the experiment with HIV-1 BaL and in the experiment on HIV-1 NL4.3 or IIIB was < 20 µg/mL each time. The inhibition at 20 µg/mL in experiment [1] was > 20%.
`Oc1cccnc1CNCc1ccc(CN(Cc2nc3ccccc3[nH]2)C2CCCc3cccnc32)cc1` (centres unmarked) [Example 55, N-(3-hydroxy-2-pyridinylmethyl)-N′-(1H-benzimidazol-2-ylmethyl)-N′-(5,6,7,8-tetrahydro-8-quinolinyl)-1,4-benzenedimethanamine]: the EC50 in the experiment with HIV-1 BaL and with HIV-1 NL4.3 or IIIB was < 20 µg/mL in each case. Further, the inhibition at 20 µg/mL in experiment [1] is > 20%.
With `Cc1cc(C)nc(CNCc2ccc(CN(Cc3nc4ccccc4[nH]3)C3CCCc4cccnc43)cc2)c1` (centres unmarked) [Example 61, N-(4,6-dimethyl-2-pyridinylmethyl)-N′-(1H-benzimidazol-2-ylmethyl)-N′-(5,6,7,8-tetrahydro-8-quinolinyl)-1,4-benzenedimethanamine], the EC50 with HIV-1 BaL and with HIV-1 NL4.3 or IIIB was < 20 µg/mL throughout. In experiment [1], the inhibition at 20 µg/mL is > 20%.
